# According to US7915292B2, “Antibacterial quinoline derivatives” (Janssen Pharmaceutica NV, priority 2005, dated 2011):
# Experiments:
# [1] = system: M. Smegmatis ATCC607; experiment: In-vitro anti-bacterial activity against strain M. smegmatis ATCC607 (Alamar Blue growth inhibition); assay type: cell-based; details: 48 hours incubation; for IC50: Mycolicibacterium smegmatis, read-out: M. smegmatis pIC50 (converted)
# Description: Serial five-fold dilutions (45 μl in 180 μl) were made directly in the microtiter plates from column 2 to 11 using a customised robot system (Zymark Corp., Hopkinton, Mass.). Pipette tips were changed after every 3 dilutions to minimize pipetting errors with high hydrophobic compounds. Untreated control samples with (column 1) and without (column 12) inoculum were included in each microtiter plate. Approximately 250 CFU per well of bacteria inoculum, in a volume of 100 μl in 2.8× Mueller-Hinton broth medium, was added to the rows […]. The same volume of broth medium without inoculum was added to column 12 in row A to H. The cultures were incubated at 37° C. for 48 hours in a humidified 5% CO2 atmosphere (incubator with open air valve and continuous ventilation). At the end of incubation, two days after inoculation, the bacterial growth was quantitated fluorometrically. Therefore Alamar Blue (10×) was added to all wells in a volume of 20 μl and plates were incubated for another 2 hours at […] The fluorescence was read in a computer-controlled fluorometer (Cytofluor, Biosearch) at an excitation wavelength of 530 nm and an emission wavelength of 590 nm (gain 30). The percentage growth inhibition achieved by the compounds was calculated according to standard methods and expressed as pIC50 values.
# [2] = system: SPN 6305; experiment: Microtitre plate assay, IC90 determination, SPN 6305; assay type: cell-based, S. pneumoniae; details: 90% inhibitory concentration for bacterial growth, strain SPN 6305, 24 hours at 37° C.; for IC90: Streptococcus pneumoniae, read-out: IC90 (μg/ml) SPN 6305
# Description: (§1) Stocks (0.5 ml/tube) were stored at -70° C. until use. Bacteria titrations were performed in microtiter plates to detect the TCID50, in which the TCID50 represents the dilution that gives rise to bacterial growth in 50% of inoculated cultures. In general, an inoculum level of approximately 100 TCID50 was used for susceptibility testing. […] Serial five-fold dilutions (45 μl in 180 μl) were made directly in the microtiter plates from column 2 to reach column 11. Untreated control samples with (column 1) and without (column 12) inoculum were included in each microtiter plate. Depending on the bacteria type, approximately 10 to 60 CFU per well of bacteria inoculum (100 TCID50), in a volume of 100 μl in 2.8× Mueller-Hinton broth medium, was added to the rows […]. The same volume of broth medium without inoculum was added to column 12 in row A to H. The cultures were incubated at 37° C. for 24 hours under a normal atmosphere (incubator with open air valve and continuous ventilation). At the end of incubation, one day after inoculation, the bacterial growth was quantitated fluorometrically. Therefore resazurin (0.6 mg/ml) was added in a volume of 20 μl to all wells 3 hours after inoculation, and the plates were re-incubated overnight. A change in colour from blue to pink indicated the growth of bacteria. The fluorescence was read in a computer-controlled fluorometer (Cytofluor Biosearch) at an excitation wavelength of 530 nm and an emission wavelength of 590 nm. The % growth inhibition achieved by the compounds was calculated according to standard methods. The IC90 (expressed in μg/ml) was defined as the 90% inhibitory concentration for bacterial growth.
# [3] = system: ECO 25922; experiment: Microtitre plate assay, IC90 determination, ECO 25922; assay type: cell-based, E. coli; details: 90% inhibitory concentration for bacterial growth, strain ECO 25922, 24 hours at 37° C.; for IC90: Escherichia coli, read-out: IC90 (μg/ml) ECO 25922
# Description: as §1
# [4] = system: EFA 14506; experiment: Microtitre plate assay, IC90 determination, EFA 14506; assay type: cell-based, E. faecalis; details: 90% inhibitory concentration for bacterial growth, strain EFA 14506, 24 hours at 37° C.; for IC90: Enterococcus faecalis, read-out: IC90 (μg/ml) EFA 14506
# Description: as §1
# [5] = system: Mycobacterium tuberculosis (strain H37RV); experiment: In-vitro method for testing compounds against M. tuberculosis (resazurin growth inhibition); assay type: cell-based; details: 7 days incubation; for IC50: Mycobacterium tuberculosis, 168 h, read-out: M. tuberculosis pIC50 (converted)
# [6] = system: STA 29213; experiment: Microtitre plate assay, IC90 determination, STA 29213; assay type: cell-based, S. aureus; details: 90% inhibitory concentration for bacterial growth, strain STA 29213, 24 hours at 37° C.; for IC90: Staphylococcus aureus, read-out: IC90 (μg/ml) STA 29213
# Description: as §1
# [7] = system: STA 25923; experiment: Microtitre plate assay, IC90 determination, STA 25923; assay type: cell-based, S. aureus; details: 90% inhibitory concentration for bacterial growth, strain STA 25923, 24 hours at 37° C.; for IC90: Staphylococcus aureus, read-out: IC90 (μg/ml) STA 25923
# Description: as §1
# [8] = system: SPY 8668; experiment: Microtitre plate assay, IC90 determination, SPY 8668; assay type: cell-based, S. pyogens; details: 90% inhibitory concentration for bacterial growth, strain SPY 8668, 24 hours at 37° C.; for IC90: read-out: IC90 (μg/ml) SPY 8668
# Description: as §1
# [9] = system: STA RMETH; experiment: Microtitre plate assay, IC90 determination, STA RMETH; assay type: cell-based, S. aureus; details: Staphylococcus aureus; 90% inhibitory concentration for bacterial growth; strain STA RMETH; 24 hours at 37° C.; read-out: IC90 (μg/ml) STA RMETH
# Description: as §1
# [10] = system: PAE 27853; experiment: Microtitre plate assay, IC90 determination, PAE 27853; assay type: cell-based, Pseudomonas aeruginosa; details: 90% inhibitory concentration for bacterial growth, strain PAE 27853, 24 hours at 37° C.; for IC90: Pseudomonas aeruginosa, read-out: IC90 (μg/ml) PAE 27853
# Description: as §1
# [11] = system: LMO 49594; experiment: Microtitre plate assay, IC90 determination, LMO 49594; assay type: cell-based, Listeria monocytogenes; details: 90% inhibitory concentration for bacterial growth, strain LMO 49594, 24 hours at 37° C.; for IC90: Listeria monocytogenes, read-out: IC90 (μg/ml) LMO 49594
# Description: as §1
# [12] = system: EFA 29212; experiment: Microtitre plate assay, IC90 determination, EFA 29212; assay type: cell-based, E. faecalis; details: 90% inhibitory concentration for bacterial growth, strain EFA 29212, 24 hours at 37° C.; for IC90: Enterococcus faecalis, read-out: IC90 (μg/ml) EFA 29212
# Description: as §1
# [13] = system: SMU 33402; experiment: Microtitre plate assay, IC90 determination, SMU 33402; assay type: cell-based, S. mutans; details: 90% inhibitory concentration for bacterial growth, strain SMU 33402, 24 hours at 37° C.; for IC90: Streptococcus mutans, read-out: IC90 (μg/ml) SMU 33402
# Description: as §1
# [14] = system: BSU 43639; experiment: Microtitre plate assay, IC90 determination, BSU 43639; assay type: cell-based, Bacillus subtilis; details: 90% inhibitory concentration for bacterial growth, strain BSU 43639, 24 hours at 37° C.; for IC90: Bacillus subtilis, read-out: IC90 (μg/ml) BSU 43639
# Description: as §1
# [15] = system: STA 43300; experiment: Microtitre plate assay, IC90 determination, STA 43300; assay type: cell-based, S. aureus; details: Staphylococcus aureus; 90% inhibitory concentration for bacterial growth; strain STA 43300; 24 hours at 37° C.; read-out: IC90 (μg/ml) STA 43300
# Description: as §1, with “Therefore resazurin (0.6 mg/ml) was added in a volume of 20 μl to all wells 3 hours after inoculation, and the plates were re-incubated overnight. A change in colour from blue to pink indicated the growth of bacteria.” left out, “The IC90 (expressed in μg/ml) was defined as the 90% inhibitory concentration for bacterial growth.” left out
SMILES,M. smegmatis pIC50 [1],IC90 [6] [µg/mL],IC90 [7] [µg/mL],IC50 [1] [µM],IC90 [11] [µg/mL],IC90 [12] [µg/mL],IC90 [13] [µg/mL],IC90 [3] [µg/mL],other results
COc1nc2ccc(C#N)cc2cc1C(c1ccccc1)N(CC(=O)N1CCN(C)CC1)Cc1ccccc1 (stereo not drawn) [Compound 123],5.2,–,–,–,–,–,–,–,IC90 (μg/ml) SPN 6305 [2]: 13.1 µg/mL; IC90 (μg/ml) ECO 25922 [3]: 13.1 µg/mL
CN(C)CCN(Cc1ccccc1)C(c1ccccc1)c1cc2cc(Br)ccc2nc1-c1ccccc1 (stereo not drawn) [Compound 51],–,11,12.3,1,13.8,13.8,6.9,13.8,IC90 [4]: 11 µg/mL; IC50 [5]: 7.94 µM; IC90 [8]: 2.8 µg/mL; IC90 [9]: 12.3 µg/mL; IC90 [2]: 2.8 µg/mL; IC90 [10]: 11 µg/mL
COc1nc2ccc(Br)cc2cc1C(c1ccccc1)N(CC(=O)N1CCOCC1)Cc1ccccc1 (stereo not drawn) [Compound 112],5.8,–,–,–,–,–,–,–,IC90 (μg/ml) STA 29213 [6]: 14.1 µg/mL
CCOC(=O)CN(Cc1ccccc1)C(c1ccccc1)c1cc2cc(Br)ccc2nc1OC (stereo not drawn) [Compound 137],–,–,11.6,–,–,–,–,13,–
CCN(CC)C(=O)CN(C)C(c1ccccc1)c1cc2cc(Br)ccc2nc1OC (stereo not drawn) [Compound 11],5.1,–,–,–,–,–,–,–,IC90 (μg/ml) STA 29213 [6]: 11.8 µg/mL
Cc1ccc2nc(-c3ccccc3)c(C(c3ccccc3)N(CC(=O)NN3CCN(C)CC3)Cc3ccccc3)cc2c1 (stereo not drawn) [Compound 69],–,9,–,1.58,–,–,–,–,–
Cc1ccc2nc(-c3ccccc3)c(C(c3ccccc3)N(CC(=O)N3CCSCC3)Cc3ccccc3)cc2c1 (stereo not drawn) [Compound 70],–,–,–,0.251,14,14,–,14,IC50 [5]: 3.16 µM; melting point: 144 °C
COc1cccc(CN(CCN(C)C)C(c2ccccc2)c2cc3cc(Br)ccc3nc2OC)c1 (stereo not drawn) [Compound 20],–,14,–,1.26,15.7,15.7,12.5,15.7,IC90 [8]: 12.5 µg/mL; IC90 [9]: 14 µg/mL; IC90 [2]: 15.7 µg/mL
COc1nc2ccc(Br)cc2cc1C(c1ccccc1F)N(CCN(C)C)Cc1ccccc1 (stereo not drawn) [Compound 22],–,10.4,8.3,1.58,8.3,10.4,–,52.2,IC90 [4]: 41.5 µg/mL; IC90 [14]: 41.5 µg/mL; IC90 [10]: 13.1 µg/mL
COc1nc2ccc(Br)cc2cc1C(c1ccccc1)N(CCN(C)C)Cc1ccccc1 (stereo not drawn) [Compound 21],5.8,–,–,–,–,–,–,–,IC90 (μg/ml) EFA 14506 [4]: 10.1 µg/mL; M. tuberculosis pIC50 [5]: 5.1; IC90 (μg/ml) STA 29213 [6]: 10.1 µg/mL; IC90 (μg/ml) STA 25923 [7]: 11.3 µg/mL; IC90 (μg/ml) BSU 43639 [14]: 10.1 µg/mL; IC90 (μg/ml) SPY 8668 [8]: 10.1 µg/mL; IC90 (μg/ml) SPN 6305 [2]: 12.7 µg/mL; IC90 (μg/ml) PAE 27853 [10]: 12.7 µg/mL; IC90 (μg/ml) LMO 49594 [11]: 12.7 µg/mL; IC90 (μg/ml) EFA 29212 [12]: 12.7 µg/mL; IC90 (μg/ml) SMU 33402 [13]: 10.1 µg/mL; IC90 (μg/ml) ECO 25922 [3]: 12.7 µg/mL
COc1nc2ccc(Br)cc2cc1C(c1ccccc1)N(CC(=O)N1CCN(C)CC1)Cc1ccccc1 (stereo not drawn) [Compound 104],–,11.4,12.8,1.58,–,–,11.4,14.4,IC90 [14]: 12.8 µg/mL; melting point: 152 °C; IC90 [8]: 11.4 µg/mL; IC90 [9]: 12.8 µg/mL; IC90 [2]: 14.4 µg/mL; IC90 [10]: 14.4 µg/mL
Cc1ccc2nc(-c3ccccc3)c(C(c3ccccc3)N(CC(=O)N3CCN(C)CC3)Cc3ccccc3)cc2c1 (stereo not drawn) [Compound 72],–,11.1,11.1,1.58,11.1,–,13.9,55.5,IC90 [14]: 8.8 µg/mL; IC90 [15]: 11.1 µg/mL
COc1nc2ccc(Br)cc2cc1C(c1ccccc1)N(CC(=O)N1CCN(C)CC1)Cc1cccc2ncccc12 (stereo not drawn) [Compound 114],–,12.5,–,20,49.6,12.5,15.7,62.5,IC90 [15]: 12.5 µg/mL
CN(C)C(=O)CN(Cc1ccccc1)C(c1ccccc1)c1cc2cc(Br)ccc2nc1-c1ccccc1 (stereo not drawn) [Compound 53],–,–,–,0.316,–,–,–,14.2,IC50 [5]: 20 µM; melting point: 110 °C
CC(C)N(C)C(=O)CN(Cc1ccccc1)C(c1cccnc1)c1cc2ccccc2nc1-c1ccccc1 (stereo not drawn) [Compound 34],5.8,–,–,–,–,–,–,–,IC90 (μg/ml) STA 29213 [6]: 51.5 µg/mL
